Test results as given in paper PMC6701825, “Antiproliferative and Antimigratory Effects of a Novel YAP–TEAD Interaction Inhibitor Identified Using in Silico Molecular Docking” (Journal of Medicinal Chemistry, 2019).

Columns and labels:
[1] = test system: TEAD target genes (CCN1, CTGF, PAI1, THBS, MAYDM, MYOC); experiment: qRT-PCR of TEAD target gene mRNA in RaVSMCs; type: cell-based, rat
Description: Figure 9 Compound 3.1 inhibits TEAD target gene expression, cell proliferation, and cell migration in RaVSMCs. RaVSMCs stably transduced with TEAD-NLUC (A) or transiently transfected with CCN1-LUC or CTGF-LUC were treated with the indicated concentrations of compound 3.1 for 6 hr. Cell conditioned media (A) or cell lysates (B−C) were assayed for nanoluciferase or fire-fly luciferase activity, respectively. VSMC were treated with 60 μM compound 3.1 for 6 h (n = 3). Total RNA was analyzed for mRNA levels of TEAD-target genes (D) or constitutive housekeeping genes (E) by qRT-PCR. VSMC were treated with indicated concentrations of compound 3.1 for 16 hr (n = 4). Total cell lysates were analyzed for CCN1 protein expression by Western blotting (F). RaVSMCs (G) or HuVSMC (H) were treated with indicated concentrations of compound 3.1 for 18 h followed by labeling in 10 μM EdU for a further 6 h (n = 4). RaVSMCs (I) or HuVSMC (J) were treated with indicated concentrations of compound 3.1 and cell migration quantified using IncuCyte real time migration assay (n = 4).
Quantitative reverse transcription (RT)-PCR: quantification of mRNA was performed by RT-qPCR, as described previously.[39] Total RNA was extracted using Ambion PureLink kits (Thermo Fisher) and reverse-transcribed using QuantiTect RT kit (Qiagen) and random primers. Quantitative PCR was performed using Roche SYBR Green using a Qiagen Roto-GeneRotor-Gene Q PCR machine (20 seconds@95 °C; 20 seconds @62 °C; 20 seconds@72 °C). Data were normalized to nonstimulated controls. Primer sequences are described in Supplement Table 2.
Supplement Figure 11: Dose repose analysis of CPD3.1 on CCN1, CTGF and THBS
RaVSMC were treated with the indicated doses of CPD3.1 and total RNA analysed for
levels of steady state mRNA of CCN1, CTGF and THBS mRNA using qRT-PCR (n=4).
(1 picture or pasted object on this page, not shown here)

TEAD2 = target: T1, TEAD2 (Homo sapiens, UniProt Q15562); experiment: GAL4-TEAD2 fusion / 5xGAL4-secNLUC reporter in HeLa cells; type: cell-based; settings: 100 μM, 6 h
T1 construct: #18881 (FLAG-YAP); host or cells: HeLa
T1 sequence (Q15562 whole entry, the tested form may be a part): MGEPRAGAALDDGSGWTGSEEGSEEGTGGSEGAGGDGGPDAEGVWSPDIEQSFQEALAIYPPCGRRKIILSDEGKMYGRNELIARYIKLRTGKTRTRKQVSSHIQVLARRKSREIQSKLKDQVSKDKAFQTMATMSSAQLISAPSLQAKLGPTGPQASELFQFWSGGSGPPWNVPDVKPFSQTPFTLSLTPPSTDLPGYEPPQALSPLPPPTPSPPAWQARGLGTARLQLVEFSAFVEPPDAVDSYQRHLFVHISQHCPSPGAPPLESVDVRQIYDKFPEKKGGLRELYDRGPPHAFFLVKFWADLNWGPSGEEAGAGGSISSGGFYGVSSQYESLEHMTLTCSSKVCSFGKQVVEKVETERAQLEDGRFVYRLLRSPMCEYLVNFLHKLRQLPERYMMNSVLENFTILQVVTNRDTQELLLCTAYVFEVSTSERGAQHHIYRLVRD
Source text: (§1) TEAD proteins (TEAD1–4) display a high degree of sequence conservation in residues that create the hydrophobic pocket that is essential for YAP binding.[51] YAP proteins also display a high degree of conservation in residues that interact with this pocket.[51] We therefore tested whether CPD3.1 was able to inhibit YAP-induced activity of TEAD1, TEAD2, TEAD3, and TEAD4. To quantify the effect of CPD3.1 on the activity of each individual TEAD paralog, while excluding interference from endogenously expressed TEAD1–4 proteins, we expressed each TEAD paralog (TEAD1–4) fused to the yeast GAL4 DNA-binding domain. Cells were transfected with the GAL4–TEAD expression vector together with a secreted nanoluciferase reporter gene vector under control of a promoter containing five GAL4 DNA-binding elements. This system allows us to study the effect of CPD3.1 on the activity of each individual TEAD protein in isolation, without interference from endogenously expressed transcription factors. In addition, the cells were co-transfected with a YAP expression vector to activate the GAL4–TEAD fusion-dependent transcription (see Supplement Figure 9). Basal activities of TEAD1, TEAD2, TEAD3, and TEAD4 were inhibited by CPD3.1 (Figure 7A–D). […]
Figure 7 Compound 3.1 inhibits TEAD1, TEAD2, TEAD3, and TEAD4 activities. […] Secreted nano-luciferase activity was quantified in the conditioned media. […]

[2] = test system: TEAD-independent GAL4 reporter vector; experiment: TEAD-independent reporter vector basal activity (Supplement Figure 10A); type: cell-based; settings: 6 hours
Source text: as §1, with “7A–D). This likely reflects the inhibition of TEAD activity driven by endogenous expression of YAP.” for “7A–D).”

[3] = RaVSMC dose-response, Supplement Figure 11

Row | SMILES | concentration giving inhibition of CCN1 mRNA [1, 3] [µM] | concentration giving inhibition of CTGF mRNA [1, 3] [µM] | concentration giving inhibition of THBS mRNA [1, 3] [µM] | steady-state mRNA levels of TEAD target genes (CCN1, CTGF, PAI1, THBS, MAYDM, MYOC) ([1]; VSMC, 60 μM, 6 h) | basal activity of GAL4-TEAD2 (TEAD2) | YAP-stimulated activity of GAL4-TEAD2 (TEAD2; YAP overexpression) | basal activity of a TEAD-independent GAL4 reporter vector [2] | steady-state mRNA levels of endogenous CCN1 and CTGF genes ([1]; RaVSMCs, Supplement Figure 4)
1 | Cc1ccc2c(c1)c1c3n2CCNC3CCC1 (centres unmarked) [CPD3.1] | 20 | 40 | 10 | significantly inhibited | inhibited | significantly inhibited | did not inhibit the basal activity | –
2 | Cc1ccc2c(c1)c1c3n2CCN(CC(O)CN2CCN(C(=O)c4ccco4)CC2)C3CCC1 (centres unmarked) [CPD3] | – | – | – | – | – | – | – | significantly inhibited
